Source: PubChem BioAssay (NCI)
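Method: 48-hour compound exposure of cells in 96-well plates, five concentrations, linear interpolation of endpoints. At the TGI there is no net growth.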

How the values were obtained:
Experiment in all cases: growth of human tumour cells (NCI), 48 h
[1] = system: T-47D breast
[2] = system: HCT-15 colon
[3] = system: ACHN renal
[4] = system: MDA-N
[5] = system: MDA-MB-435
[6] = system: 786-0 renal
[7] = system: PC-3 prostate
[8] = system: SN12C renal
[9] = system: RPMI-8226 leukemia
[10] = system: RXF 393 renal
[11] = system: OVCAR-5 ovarian
[12] = system: COLO 205 colon
[13] = system: SNB-75 CNS
[14] = system: HCT-116 colon
[15] = system: NCI/ADR-RES ovarian
[16] = system: OVCAR-3 ovarian
[17] = system: NCI-H23 lung
[18] = system: HOP-62 NSCLC
[19] = system: SK-MEL-2 melanoma
[20] = system: M14 melanoma
[21] = system: BT-549 breast
[22] = system: MCF7 breast
[23] = system: MOLT-4 leukemia
[24] = system: UO-31 renal
[25] = system: SF-539 CNS
[26] = system: UACC-257 melanoma
[27] = system: HCC-2998 colon
[28] = system: HOP-92 NSCLC
[29] = system: OVCAR-8 ovarian
[30] = system: IGROV1 ovarian
[31] = system: SK-MEL-5 melanoma
[32] = system: SNB-19 CNS
[33] = system: DU-145 prostate
[34] = system: SK-MEL-28 melanoma
[35] = system: LOX IMVI melanoma
[36] = system: UACC-62 melanoma
[37] = system: HL-60(TB) leukemia
[38] = system: SW-620 colon
[39] = system: HT29 colon
[40] = system: NCI-H522 lung
[41] = system: KM12 colon
[42] = system: TK-10 renal
[43] = system: A498 renal
[44] = system: SF-295 CNS
[45] = system: SF-268 CNS
[46] = system: CAKI-1 renal
[47] = system: HS 578T breast
[48] = system: SR leukemia
[49] = system: EKVX NSCLC
[50] = system: MDA-MB-231 breast
[51] = system: A549 NSCLC
[52] = system: NCI-H226 lung
[53] = system: SK-OV-3 ovarian
[54] = system: CCRF-CEM leukemia
[55] = system: U251 CNS
[56] = system: OVCAR-4 ovarian
[57] = system: K-562 leukemia
[58] = system: NCI-H460 lung
[59] = system: MALME-3M melanoma

In the case of `CCOC(=O)c1nc2cc(C(F)(F)F)ccc2nc1Nc1ccc(OC)cc1`, the TGI [1] is reported as > 100 µM, the TGI [2] is reported as > 100 µM and the TGI [3] is reported as > 100 µM. The TGI [4] was > 100 µM, the TGI [5] was > 100 µM and the TGI [6] was > 100 µM. The TGI [7] was > 100 µM, the TGI [8] was > 100 µM and the TGI [9] was > 100 µM. The TGI [10] was > 100 µM, the TGI [11] was > 100 µM and the TGI [12] was > 100 µM. The TGI [13] was > 100 µM, the TGI [14] was > 100 µM and the TGI [15] was > 100 µM. For the same molecule, the TGI [16] was > 100 µM, the TGI [17] was > 100 µM and the TGI [18] was > 100 µM. The TGI [19] was > 100 µM, the TGI [20] was > 100 µM and the TGI [21] was > 100 µM. For the same molecule, the TGI [22] was > 100 µM, the TGI [23] was > 100 µM and the TGI [24] was > 100 µM. The TGI [25] was > 100 µM, the TGI [26] was > 100 µM and the TGI [27] was > 100 µM. The TGI [28] was > 100 µM, the TGI [29] was > 100 µM and the TGI [30] was > 100 µM. For the same molecule, the TGI [31] was > 100 µM, the TGI [32] was > 100 µM and the TGI [33] was > 100 µM. For the same molecule, the TGI [34] was > 100 µM, the TGI [35] was > 100 µM and the TGI [36] was > 100 µM. The TGI [37] was > 100 µM, the TGI [38] was > 100 µM and the TGI [39] was > 100 µM. The TGI [40] was > 100 µM, the TGI [41] was > 100 µM and the TGI [42] was > 100 µM. The TGI [43] was > 100 µM, the TGI [44] was > 100 µM and the TGI [45] was > 100 µM. The TGI [46] was > 100 µM, the TGI [47] was > 100 µM and the TGI [48] was > 100 µM. For the same molecule, the TGI [49] was > 100 µM, the TGI [50] was > 100 µM and the TGI [51] was > 100 µM. For the same molecule, the TGI [52] was > 100 µM.
With `Nc1ncnc2oc(C3OC(COC(=O)c4ccccc4)C(OC(=O)c4ccccc4)C3OC(=O)c3ccccc3)nc12` (stereo not given) the TGI [1] was > 100 µM, the TGI [2] was > 100 µM and the TGI [3] was > 100 µM. For the same molecule, the TGI [4] was > 100 µM, the TGI [5] was > 100 µM and the TGI [6] was > 100 µM. For the same molecule, the TGI [7] was > 100 µM, the TGI [8] was > 100 µM and the TGI [53] was > 100 µM. The TGI [9] was > 100 µM, the TGI [10] was > 100 µM and the TGI [11] was > 100 µM. For the same molecule, the TGI [12] was > 100 µM, the TGI [13] was > 100 µM and the TGI [14] was > 100 µM. The TGI [15] was > 100 µM, the TGI [16] was > 100 µM and the TGI [17] was > 100 µM. The TGI [18] was > 100 µM, the TGI [54] was > 100 µM and the TGI [20] was > 100 µM. For the same molecule, the TGI [21] was > 100 µM, the TGI [22] was > 100 µM and the TGI [23] was > 100 µM. For the same molecule, the TGI [24] was > 100 µM, the TGI [25] was > 100 µM and the TGI [26] was > 100 µM. For the same molecule, the TGI [27] was > 100 µM, the TGI [28] was > 100 µM and the TGI [29] was > 100 µM. The TGI [30] was > 100 µM, the TGI [31] was > 100 µM and the TGI [32] was > 100 µM. For the same molecule, the TGI [55] was > 100 µM, the TGI [33] was > 100 µM and the TGI [34] was > 100 µM. The TGI [35] was > 100 µM, the TGI [56] was > 100 µM and the TGI [57] was > 100 µM. The TGI [58] was > 100 µM, the TGI [36] was > 100 µM and the TGI [37] was > 100 µM. For the same molecule, the TGI [38] was > 100 µM, the TGI [39] was > 100 µM and the TGI [40] was > 100 µM. The TGI [41] was > 100 µM, the TGI [42] was > 100 µM and the TGI [43] was 82.6 µM. For the same molecule, the TGI [44] was > 100 µM, the TGI [45] was > 100 µM and the TGI [59] was > 100 µM. For the same molecule, the TGI [46] was > 100 µM, the TGI [47] was > 100 µM and the TGI [48] was > 100 µM. For the same molecule, the TGI [49] was > 100 µM, the TGI [50] was > 100 µM and the TGI [51] was > 100 µM. The TGI [52] was > 100 µM.
